Test results from US8080529B2, “Macrolides with anti-inflammatory activity” (Glaxo Group Limited, priority 2005, dated 2011).
Where two headings read alike, the source gives them in different places.

Tests used:
[1] = system: TNF-α; assay: Inhibition of TNF-α production by stimulated human peripheral blood leukocytes in vitro; type: cell-based; conditions: Homo sapiens, Leukocyte, read-out: Percentage of inhibition of TNF-α production
Outline: (§1)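 Dextran-sedimented human PBL (3–5×10^6/well) preincubated 2 h at 37 °C with compounds at 50 μM or 10 μM, then stimulated overnight with LPS 2 μg/mL, PMA 1 μg/mL or zymosan 120 μg/mL. Supernatant cytokines quantified by sandwich ELISA; % inhibition versus stimulated untreated controls.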

[2] = system: IL-1α; assay: Inhibition of IL-1 production by stimulated human peripheral blood leukocytes in vitro; type: cell-based; conditions: Homo sapiens, Leukocyte, read-out: Percentage of inhibition of IL-1α production
[3] = system: IL-6; assay: Inhibition of IL-6 production by stimulated human peripheral blood leukocytes in vitro; type: cell-based; conditions: Homo sapiens, Leukocyte, read-out: Percentage of inhibition of IL-6 production
Outline: as §1

[4] = system: IL-8; assay: Inhibition of IL-8 production by stimulated human peripheral blood leukocytes in vitro; type: cell-based; conditions: Homo sapiens, Leukocyte, read-out: Percentage of inhibition of IL-8 production
Outline: as §1

[5] = system: human peripheral blood mononuclear cells (PBMC); assay: Effects on human T-cell proliferation in vitro (3H-thymidine incorporation); type: cell-based; conditions: Homo sapiens, PBMC, read-out: Percentage of inhibition of proliferation of stimulated PBMC
Outline: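 Proliferation of human peripheral blood mononuclear cells (PBMC) was assessed in the presence of test compounds. During the final 18 h of culture each well received 1 μCi of ^3H-thymidine. Cells were then collected onto a 96-well filter with a multiple cell harvester, and ^3H-thymidine incorporation was counted on a TopCount NXT to give percentage inhibition of proliferation.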

[6] = system: Hep G2; assay: Cytotoxicity assay (MTT), Hep G2 cell line; type: cell-based; conditions: 24 h
Outline: (§2)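 Viability was read as MTT-formazan absorbance at 490 nm after 0.5-2 h with reagent. This followed 24 h compound exposure (50 μM, 12.5 μM) at 37° C in RPM medium. Result expressed as OD490 treated over untreated cells ×100.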

[7] = system: A549; assay: Cytotoxicity assay (MTT), A549 cell line; type: cell-based; conditions: 24 h
Outline: as §2

[8] = system: TNF-α; assay: Lipopolysaccharide induced TNF-α production in Balb/cJ mice; type: in vivo; conditions: Mus musculus, ip, 1.5 h; 10 mg/kg intraperitoneally, 30 min before LPS; 90 min after LPS; read-out: % inhibition of TNF-α production (plasma)

CC[C@H]1OC(=O)[C@H](C)[C@@H](O[C@H]2C[C@@](C)(OC)[C@@H](OC(=O)CCN(CC)CC)[C@H](C)O2)[C@H](C)[C@@H](O[C@@H]2O[C@H](C)C[C@H](N(C)C)[C@H]2O)[C@](C)(O)C[C@@H](C)CN(C)[C@H](C)[C@H]2OC(=O)O[C@@]21C [Example 1, 11,12-Carbonate-11,12-dideoxy-4″-O-(3-diethylamino-propionyl)-azithromycin]
inhibition at 10 µM ([1]; LPS-stimulated PBL): 54%
inhibition at 10 µM ([1]; PMA-stimulated PBL): 0%
inhibition at 10 µM ([1]; zymosan-stimulated PBL): 88%
inhibition at 50 µM ([1]; LPS-stimulated PBL): 100%
inhibition at 50 µM ([1]; PMA-stimulated PBL): 94%
inhibition at 50 µM ([1]; zymosan-stimulated PBL): 100%
inhibition at 10 µM ([2]; LPS-stimulated PBL): 67%
inhibition at 10 µM ([2]; PMA-stimulated PBL): 0%
inhibition at 10 µM ([2]; zymosan-stimulated PBL): 73%
inhibition at 50 µM ([2]; LPS-stimulated PBL): 93%
inhibition at 50 µM ([2]; PMA-stimulated PBL): 84%
inhibition at 50 µM ([2]; zymosan-stimulated PBL): 83%
inhibition at 10 µM ([3]; LPS-stimulated PBL): 10%
inhibition at 10 µM ([3]; PMA-stimulated PBL): 0%
inhibition at 10 µM ([3]; zymosan-stimulated PBL): 29%
inhibition at 50 µM ([3]; LPS-stimulated PBL): 94%
inhibition at 50 µM ([3]; PMA-stimulated PBL): 96%
inhibition at 50 µM ([3]; zymosan-stimulated PBL): 100%
inhibition at 10 µM ([4]; LPS-stimulated PBL): 0%
inhibition at 10 µM ([4]; PMA-stimulated PBL): 0%
inhibition at 10 µM ([4]; zymosan-stimulated PBL): 29%
inhibition at 50 µM ([4]; LPS-stimulated PBL): 97%
inhibition at 50 µM ([4]; PMA-stimulated PBL): 100%
inhibition at 50 µM ([4]; zymosan-stimulated PBL): 100%
inhibition at 10 µM ([5]; PHA): 95%
inhibition at 50 µM ([5]; PHA): 99%
inhibition at 10 µM ([5]; PMA + iono.): 90%
inhibition at 50 µM ([5]; PMA + iono.): 96%
Percentage of inhibition of cell growth ([6]; 12.5 μM): 0%
Percentage of inhibition of cell growth ([6]; 50 μM): 15%
Percentage of inhibition of cell growth ([7]; 12.5 μM): 0%
Percentage of inhibition of cell growth ([7]; 50 μM): 3%
inhibition in vivo at 10 mg/kg [8]: 64%

CC[C@H]1OC(=O)[C@H](C)[C@@H](O[C@H]2C[C@@](C)(OC)[C@@H](OC(=O)CCN(CC)CC)[C@H](C)O2)[C@H](C)[C@@H](O[C@@H]2O[C@H](C)C[C@H](N(C)C)[C@H]2O)[C@](C)(O)C[C@@H](C)CN(C)[C@H](C)[C@@H](O)[C@]1(C)O [Example 48, 4″-O-(3-diethylamino-propionyl)-azithromycin]
inhibition at 10 µM ([1]; LPS-stimulated PBL): 49%
inhibition at 10 µM ([1]; PMA-stimulated PBL): 31%
inhibition at 10 µM ([1]; zymosan-stimulated PBL): 82%
inhibition at 50 µM ([1]; LPS-stimulated PBL): 87%
inhibition at 50 µM ([1]; PMA-stimulated PBL): 90%
inhibition at 50 µM ([1]; zymosan-stimulated PBL): 97%
inhibition at 10 µM ([2]; LPS-stimulated PBL): 64%
inhibition at 10 µM ([2]; PMA-stimulated PBL): 38%
inhibition at 10 µM ([2]; zymosan-stimulated PBL): 85%
inhibition at 50 µM ([2]; LPS-stimulated PBL): 79%
inhibition at 50 µM ([2]; PMA-stimulated PBL): 78%
inhibition at 50 µM ([2]; zymosan-stimulated PBL): 92%
inhibition at 10 µM ([3]; LPS-stimulated PBL): 57%
inhibition at 10 µM ([3]; PMA-stimulated PBL): 30%
inhibition at 10 µM ([3]; zymosan-stimulated PBL): 73%
inhibition at 50 µM ([3]; LPS-stimulated PBL): 97%
inhibition at 50 µM ([3]; PMA-stimulated PBL): 84%
inhibition at 50 µM ([3]; zymosan-stimulated PBL): 97%
inhibition at 10 µM ([4]; LPS-stimulated PBL): 36%
inhibition at 10 µM ([4]; PMA-stimulated PBL): 25%
inhibition at 10 µM ([4]; zymosan-stimulated PBL): 49%
inhibition at 50 µM ([4]; LPS-stimulated PBL): 85%
inhibition at 50 µM ([4]; PMA-stimulated PBL): 83%
inhibition at 50 µM ([4]; zymosan-stimulated PBL): 90%
inhibition at 10 µM ([5]; PHA): 93%
inhibition at 50 µM ([5]; PHA): 100%
inhibition at 10 µM ([5]; PMA + iono.): 81%
inhibition at 50 µM ([5]; PMA + iono.): 100%
Percentage of inhibition of cell growth ([6]; 12.5 μM): 0%
Percentage of inhibition of cell growth ([6]; 50 μM): 9%
Percentage of inhibition of cell growth ([7]; 12.5 μM): 0%
Percentage of inhibition of cell growth ([7]; 50 μM): 0%
inhibition in vivo at 10 mg/kg [8]: 52%

CC[C@H]1OC(=O)[C@H](C)[C@@H](O[C@H]2C[C@@](C)(OC)[C@@H](OC(=O)CCN(C)CCN(CC)CC)[C@H](C)O2)[C@H](C)[C@@H](O[C@@H]2O[C@H](C)C[C@H](N(C)C)[C@H]2O)[C@](C)(OC)C[C@@H](C)C(=O)N[C@H](C)[C@@H](O)[C@]1(C)O [Example 21]
inhibition at 10 µM ([1]; LPS-stimulated PBL): 0%
inhibition at 10 µM ([1]; PMA-stimulated PBL): 8%
inhibition at 10 µM ([1]; zymosan-stimulated PBL): 5%
inhibition at 50 µM ([1]; LPS-stimulated PBL): 10%
inhibition at 50 µM ([1]; PMA-stimulated PBL): 75%
inhibition at 50 µM ([1]; zymosan-stimulated PBL): 39%
inhibition at 10 µM ([2]; LPS-stimulated PBL): 14%
inhibition at 10 µM ([2]; PMA-stimulated PBL): 31%
inhibition at 10 µM ([2]; zymosan-stimulated PBL): 58%
inhibition at 50 µM ([2]; LPS-stimulated PBL): 54%
inhibition at 50 µM ([2]; PMA-stimulated PBL): 69%
inhibition at 50 µM ([2]; zymosan-stimulated PBL): 86%
inhibition at 10 µM ([3]; LPS-stimulated PBL): 1%
inhibition at 10 µM ([3]; PMA-stimulated PBL): 17%
inhibition at 10 µM ([3]; zymosan-stimulated PBL): 22%
inhibition at 50 µM ([3]; LPS-stimulated PBL): 22%
inhibition at 50 µM ([3]; PMA-stimulated PBL): 63%
inhibition at 50 µM ([3]; zymosan-stimulated PBL): 50%
inhibition at 10 µM ([4]; LPS-stimulated PBL): 0%
inhibition at 10 µM ([4]; PMA-stimulated PBL): 6%
inhibition at 10 µM ([4]; zymosan-stimulated PBL): 0%
inhibition at 50 µM ([4]; LPS-stimulated PBL): 4%
inhibition at 50 µM ([4]; PMA-stimulated PBL): 23%
inhibition at 50 µM ([4]; zymosan-stimulated PBL): 13%
inhibition at 10 µM ([5]; PHA): 0%
inhibition at 50 µM ([5]; PHA): 80%
inhibition at 10 µM ([5]; PMA + iono.): 0%
inhibition at 50 µM ([5]; PMA + iono.): 74%
Percentage of inhibition of cell growth ([6]; 12.5 μM): 8%
Percentage of inhibition of cell growth ([6]; 50 μM): 4%
Percentage of inhibition of cell growth ([7]; 12.5 μM): 5%
Percentage of inhibition of cell growth ([7]; 50 μM): 4%
inhibition in vivo at 10 mg/kg [8]: 61%

CC[C@H]1OC(=O)[C@H](C)[C@@H](O[C@H]2C[C@@](C)(OC)[C@@H](OC(=O)CCN(C)CCO)[C@H](C)O2)[C@H](C)[C@@H](O[C@@H]2O[C@H](C)C[C@H](N(C)C)[C@H]2O)[C@](C)(OC)C[C@@H](C)C(=O)N[C@H](C)[C@@H](O)[C@]1(C)O [Example 15]
inhibition at 10 µM ([1]; LPS-stimulated PBL): 61%
inhibition at 10 µM ([1]; PMA-stimulated PBL): 82%
inhibition at 10 µM ([1]; zymosan-stimulated PBL): 93%
inhibition at 50 µM ([1]; LPS-stimulated PBL): 99%
inhibition at 50 µM ([1]; PMA-stimulated PBL): 96%
inhibition at 50 µM ([1]; zymosan-stimulated PBL): 100%
inhibition at 10 µM ([2]; LPS-stimulated PBL): 80%
inhibition at 10 µM ([2]; PMA-stimulated PBL): 80%
inhibition at 10 µM ([2]; zymosan-stimulated PBL): 96%
inhibition at 50 µM ([2]; LPS-stimulated PBL): 98%
inhibition at 50 µM ([2]; PMA-stimulated PBL): 96%
inhibition at 50 µM ([2]; zymosan-stimulated PBL): 99%
inhibition at 10 µM ([3]; LPS-stimulated PBL): 39%
inhibition at 10 µM ([3]; PMA-stimulated PBL): 50%
inhibition at 10 µM ([3]; zymosan-stimulated PBL): 76%
inhibition at 50 µM ([3]; LPS-stimulated PBL): 93%
inhibition at 50 µM ([3]; PMA-stimulated PBL): 95%
inhibition at 50 µM ([3]; zymosan-stimulated PBL): 96%
inhibition at 10 µM ([4]; LPS-stimulated PBL): 38%
inhibition at 10 µM ([4]; PMA-stimulated PBL): 0%
inhibition at 10 µM ([4]; zymosan-stimulated PBL): 42%
inhibition at 50 µM ([4]; LPS-stimulated PBL): 94%
inhibition at 50 µM ([4]; PMA-stimulated PBL): 95%
inhibition at 50 µM ([4]; zymosan-stimulated PBL): 91%
inhibition at 10 µM ([5]; PHA): 68%
inhibition at 50 µM ([5]; PHA): 99%
inhibition at 10 µM ([5]; PMA + iono.): 53%
inhibition at 50 µM ([5]; PMA + iono.): 98%
Percentage of inhibition of cell growth ([6]; 12.5 μM): 3%
Percentage of inhibition of cell growth ([6]; 50 μM): 0%
Percentage of inhibition of cell growth ([7]; 12.5 μM): 0%
Percentage of inhibition of cell growth ([7]; 50 μM): 5%
inhibition in vivo at 10 mg/kg [8]: 100%
